From patent US20240409519A1, “HYDROGENATED QUINOXALINES” (OTSUKA PHARMACEUTICAL CO., LTD., priority 2021, published 2024) come the findings set out here.

The structures appear in SMILES notation.

One data set addresses T1, serotonin (5-HT) uptake (Rattus norvegicus, UniProt P31652).
T1 construct: used as crude synaptosomal fraction; from tissue; host or cells: rat frontal cortex, crude synaptosomal fraction
The data set can be described thus: Serotonin (5-HT) uptake inhibitory activity in rat brain synaptosome. The class given is biochemical. As to conditions: rat frontal cortex synaptosome, tritium-labeled 5-HT 8 nM; read-out: IC50 (nM), serotonin (5-HT) uptake inhibition. How it is done: Male Wistar rats were decapitated, each brain was removed, and the frontal cortex was cut out. […] The homogenate was centrifuged at 1000 g at 4° C. for 10 minutes, and the supernatant was further centrifuged at 20000 g at 4° C. for 20 minutes. The pellet was suspended in an incubation buffer (20 mM Hepes buffer (pH 7.4) containing 10 mM glucose, 145 mM sodium chloride, 4.5 mM potassium chloride, 1.2 mM magnesium chloride and 1.5 mM calcium chloride) and used as crude synaptosomal fraction.
Each well of a 96-well round-bottom plate was used for the uptake reaction in a total volume of 200 μL solution containing purgurin (final concentration 10 μM) and ascorbic acid (final concentration 0.2 mg/mL). In other words, solvent, unlabeled 5-HT or step-diluted test compound was added to each well, and one-tenth of the final volume of the synaptosomal fraction was added to each well, followed by pre-incubation at 37° C. for 10 minutes, and then tritium-labeled 5-HT solution (final concentration 8 nM) was added and the uptake reaction was initiated at 37° C. After 10 minutes, the uptake reaction was terminated by suction filtration onto a 96-well glass fiber filter plate. The filters were rinsed with cold physi-ological saline solution, dried thoroughly, and micro scintillation 0 (Perkin-Elmer) was added thereto. Then, the residual radioactivity on the filters was measured.
The uptake value when only solvent was added was set as 100%, the uptake value when unlabeled 5-HT (final concentration 10 μM) was added as 0% (nonspecific uptake value), and the 50% inhibitory concentration was calculated from the concentration of the test compound and its inhibitory activity.

Data set [1] is described as follows: Metabolic stability test (human liver microsome, hepatic intrinsic clearance). The class given is in vitro ADME. The conditions noted are these: human liver microsomes, pH 7.4; human liver microsome 0.2 mg/mL, test compound 0.001 mmol/L, 37° C., 0, 10 and 20 minutes. How it is done:
A metabolic reaction was initiated by adding and mixing a test compound solution (final concentration 0.001 mmol/L) and a NADH/NADPH solution (final concentration 1 mmol/L) to a human liver microsome solution (final concentration 100 mmol/L potassium phosphate buffer solution (pH 7.4), 5 mmol/L magnesium chloride, 0.2 mg/ml, human liver microsome). A solution of the internal standard in methanol was prepared and used as a quenching solution.
Specifically, a metabolic reaction was initiated by adding and mixing 2.5 μL of a solution of a test compound in acetonitrile to 222.5 μL of a human liver microsome solution in ice water, followed by preincubation at 37° C. for 1 minute, and then adding 25 μL of a NADH/NADPH solution thereto.
The mixture was centrifuged (6130 g, 4° C., 10 minutes) and the supernatant was used as a sample for LC-MS/MS.
Peak area ratio ([peak area of test compound]/[peak area of internal standard]) was calculated for the test compound and the internal standard.
The residual ratio of the test compound was calculated from ([Ratio of peak areas at each reaction time]/[Ratio of peak areas at 0 minute reaction time]).
In general terms: Microsomes from liver hold many membrane-bound enzymes, among them those of drug oxidation.

T1 sequence (P31652 whole entry): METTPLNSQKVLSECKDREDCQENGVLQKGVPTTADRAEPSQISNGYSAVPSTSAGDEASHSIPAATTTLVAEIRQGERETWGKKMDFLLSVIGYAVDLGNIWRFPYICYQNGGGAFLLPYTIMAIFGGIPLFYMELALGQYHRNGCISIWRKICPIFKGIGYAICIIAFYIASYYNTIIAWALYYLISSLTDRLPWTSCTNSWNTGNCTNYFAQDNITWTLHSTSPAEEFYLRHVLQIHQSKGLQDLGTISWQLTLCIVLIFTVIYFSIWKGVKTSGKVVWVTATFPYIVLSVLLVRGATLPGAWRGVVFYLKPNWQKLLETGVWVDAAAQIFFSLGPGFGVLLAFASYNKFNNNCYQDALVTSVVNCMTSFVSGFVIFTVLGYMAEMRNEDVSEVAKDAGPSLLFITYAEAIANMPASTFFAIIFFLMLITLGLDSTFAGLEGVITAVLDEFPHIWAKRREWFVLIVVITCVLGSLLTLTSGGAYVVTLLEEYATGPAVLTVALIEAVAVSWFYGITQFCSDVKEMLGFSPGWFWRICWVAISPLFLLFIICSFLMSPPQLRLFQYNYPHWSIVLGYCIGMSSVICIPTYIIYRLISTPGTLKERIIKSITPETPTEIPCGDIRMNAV

Take `C[C@@H]1CN(c2cc(F)c(OCCO)c(Cl)c2)[C@H]2CCCC[C@@H]2N1` [Example 17, 2-(2-chloro-6-fluoro-4-((3R,4aS,8aS)-3-methyloctahydroquinoxalin-1(2H)-yl)phenoxy)ethan-1-ol 1/2fumarate]: at serotonin (5-HT) uptake, the IC50 was 7.3 nM. In data set [1], this molecule had a microsomal CLint at 0.001 mmol/L of under 50 µL/min/mg.
Turning to `C[C@H]1CN(c2cc(F)c(OCCO)c(Cl)c2)[C@H]2CCCC[C@H]2N1` [Example 18], the IC50 on serotonin (5-HT) uptake worked out at 73.1 nM. The microsomal CLint at 0.001 mmol/L in data set [1] is under 50 µL/min/mg.
The like results for `CC1(C)CN(c2ccc(OC(F)(F)CO)cc2)[C@H]2CCCC[C@@H]2N1` [Example 20, 2-(4-((4aS,8aS)-3,3-dimethyloctahydroquinoxalin-1(2H)-yl)phenoxy)-2,2-difluoroethan-1-ol] were, in that order, 4.7 nM and under 50 µL/min/mg.
For the molecule `CC1(C)CN(c2ccc(OC(F)(F)CO)cc2)[C@@H]2CCCC[C@H]2N1` [Example 21], the IC50 on serotonin (5-HT) uptake turned out to be 89.9 nM. In addition, in data set [1], the microsomal CLint at 0.001 mmol/L was under 50 µL/min/mg.
The matching figures for `COc1cc(N2CC(C)(C)N[C@H]3CCCC[C@@H]32)ccc1OC(F)(F)CO` [Example 26]: 18.1 nM and under 50 µL/min/mg.
Turning to `CC1(C)CN(c2ccc(OCCO)c(Cl)c2)[C@H]2CCCC[C@@H]2N1` [Example 27, 2-(2-chloro-4-((4aS,8aS)-3,3-dimethyloctahydroquinoxalin-1(2H)-yl)phenoxy)ethan-1-ol], the 50% inhibitory concentration (IC50) at serotonin (5-HT) uptake was 7.6 nM. In addition, the microsomal CLint at 0.001 mmol/L in data set [1] is under 50 µL/min/mg.
`CC1(C)CN(c2ccc(OCCO)c(Cl)c2)[C@@H]2CCCC[C@H]2N1` [Example 28]: the IC50 on serotonin (5-HT) uptake was 55.1 nM. In addition, the microsomal CLint at 0.001 mmol/L in data set [1] is under 50 µL/min/mg.
The like results for `Cc1cc(N2CC(C)(C)N[C@H]3CCCC[C@@H]32)ccc1OC(F)(F)CO` [Example 31] were, in that order, 26.6 nM and under 50 µL/min/mg.
Regarding `Cc1cc(N2CC(C)(C)N[C@@H]3CCCC[C@H]32)ccc1OC(F)(F)CO` [Example 32], at serotonin (5-HT) uptake, the IC50 stood at 98.3 nM. The microsomal CLint at 0.001 mmol/L in data set [1] was under 50 µL/min/mg.
On to `CC1(C)CN(c2cc(F)c(OCCO)c(F)c2)[C@H]2CCCC[C@@H]2N1` [Example 34, 2-(4-((4aS,8aS)-3,3-dimethyloctahydroquinoxalin-1(2H)-yl)-2,6-difluorophenoxy)ethan-1-ol], for which the IC50 at serotonin (5-HT) uptake was found to be 8.9 nM. The molecule further returned a microsomal CLint at 0.001 mmol/L in data set [1] of under 50 µL/min/mg.
The like results for `CC1(C)CN(c2cc(F)c(OCCO)c(F)c2)[C@@H]2CCCC[C@H]2N1` [Example 35] were, in that order, 71 nM and under 50 µL/min/mg.
Turning to `CC1(C)CN(c2cc(F)c(OCCO)c(F)c2)[C@H]2CCCC[C@H]2N1` [Example 36], the IC50 on serotonin (5-HT) uptake was 60.1 nM. The molecule further yielded a microsomal CLint at 0.001 mmol/L in data set [1] of under 50 µL/min/mg.
The like results for `CN1[C@H]2CCCC[C@@H]2N(c2ccc(OC(F)(F)CO)cc2)CC1(C)C` [Example 37, 2,2-difluoro-2-(4-((4aS,8aS)-3,3,4-trimethyloctahydroquinoxalin-1(2H)-yl)phenoxy)ethan-1-ol] were, in that order, 87.4 nM and under 50 µL/min/mg.

In general, IC50 refers to the concentration that inhibits the measured activity by half. By microsomal CLint is commonly meant the rate of metabolic loss divided by the concentration. Lower therefore signals slow turnover.
